Literature values as cited in US20240285636A1, “PHARMACEUTICAL COMPOSITION AND USE OF THE PHARMACEUTICAL COMPOSITION” (LIBBS FARMACÊUTICA LTDA, priority 2021, published 2024).

Conditions: class IV = low solubility and low permeability

Biopharmaceutical Classification System class: class IV
Structure (SMILES): CCCSc1nc(N[C@@H]2C[C@H]2c2ccc(F)c(F)c2)c2nnn([C@@H]3C[C@H](OCCO)[C@@H](O)[C@H]3O)c2n1 (relative stereo) [Ticagrelor, {1S-[1α,2α,3β(1S*,2R*),5β}-3-(7-{[2-(3,4-difluorophenyl)-cyclopropyl]amino}-5-(propylthio)-3H-1,2,3-triazol[4,5-d]pyrimidin-3-yl)-5-(2-hydroxyethoxy)cyclopentane-1,2-diol]
